# Values joined by “and” are separate entries in the source; they are usually repeats but may differ in a detail not shown here. Identical values can stand only once.
# Columns and labels:
# [1] = tested on: RPMI-8402, BV-173, and SUP-B15 cell lines; assay: Cell cycle analysis (propidium iodide); type: cell-based, human; settings: increasing concentrations, 24 h; concomitant increment of cell debris
# Protocol: (§1) The effect of the inhibition of Chk1 pathway on cell cycle progression was evaluated in RPMI-8402, BV-173, SUP-B15, and NALM-6 cell lines. Cells were incubated with increasing concentrations of PF-00477736 for 6 and 24 h and then stained with propidium iodide to quantify the DNA amount.
# (§2) In order to evaluate the effect of PF-00477736 on cell cycle progression, NALM-6, SUPB-15, RPMI-8402, and BV-173 cell lines were seeded in a 24-well plate at 500,000 cell/1 ml with increasing concentrations of PF-00477736 (0.1, 0.5, and 1 μM for NALM-6 and SUP-B15; 0.05, 0.1, and 0.2 μM for RPMI-8402 and BV-173). After 6 and 24 h, cells were harvested and fixed overnight using ethanol at 70 %. Then, cells were stained using PI/RNase Staining Buffer according to the manufacturer’s instruction (BD Pharmingen), and the cell cycle profile was detected using FACSCanto II instrument. The percentage of the different cell cycle phases was performed using the DNA cell-cycle analysis software for flow cytometry data, ModFit LT (Verity).
# NALM-6 cell line = assay: Cell cycle analysis (propidium iodide); type: cell-based, human; settings: 0.1, 0.5, 1 μM, 24 h; reduced percentage of cells in G1 phase
# Protocol: as §1, §2
# [2] = tested on: B/T-ALL cell lines (BV-173, SUP-B15, REH, NALM-6, NALM-19, MOLT-4, RPMI-8402, CCRF-CEM); assay: Gene expression profiling (Affymetrix GeneChip Human Gene 1.0 ST); type: cell-based
# Protocol: In order to identify gene expression changes specifically correlated with Chk1 inhibition and to better elucidate the mechanism of action of Chk1 inhibitor, gene expression profiling (GEP) analysis was performed by microarray on treated B/T-ALL cell lines (BV-173, SUP-B15, REH, NALM-6, NALM-19, MOLT-4, RPMI-8402, and CCRF-CEM) and on their untreated counterparts (DMSO 0.1 %) after 24 h of drug exposure. […] To identify peculiar critical pathways affected by Chk1 inhibition, the differentially expressed genes were analyzed in terms of biological function using the MetaCore pathway mapping software (GeneGo Inc.) which categorizes genes in pathway maps, Gene Ontology (GO) cellular processes, and cellular and molecular process networks. Consistent with a Chk1’s mechanism of action, the three top scored maps (map with the lowest p value) were “cell cycle: estrogen receptor 1 (ESR1) regulation of G1/S transition” including c-Jun/c-Fos, cyclin A, CARM1, Skp2/TrCP/FBXW, SKP2, c-Fos, CDK4, NCOA3, c-Jun, and CDK2 genes (Additional file 1: Figure S5); “apoptosis and survival: granzyme A signaling” including PHAP1, Ku70/80, Ku80, Ku70, histone H3, NDPK A, SET, histone H2B, and histone H1 genes (Additional file 1: Figure S6); and “DNA damage: ATM/ATR regulation of G1/S checkpoint” including PCNA, growth arrest and DNA damage 45 alpha (GADD45a), Chk2, cyclin A, NF-kB, cyclin-dependent kinase 4 (CDK4), FANCD2, Claspin, and CDK2 genes (Additional file 1: Figure S7). GO cellular processes highlighted 617 genes involved in cellular metabolic process (Additional file 3). Finally, the three top scored process networks impaired by the treatment with Chk1 inhibitor were as follows: the DNA damage checkpoint, the S phase of cell cycle, and the apoptosis, confirming the specificity of treatment on its target pathways (Additional file 4). […] Due to its implication in the regulation of the cell cycle and apoptosis, Western blot analysis against c-Jun was performed to better comprehend its biological role in response to PF-00477736. c-Jun is a component of the transcription factor activating protein-1 (AP-1) which is involved in cell cycle progression through the G1 phase by the regulation of the cyclin D1 [28]. […] The data found in the gene expression profile analysis were validated using qPCR.
# Gene expression profiling on treated and untreated cells (DMSO 0.1 %) after 24 h of exposure to PF-0077736 was performed using Affymetrix GeneChip Human Gene 1.0 ST platform (Affymetrix Inc. Santa Clara, CA, USA) and following manufacturers’ instructions. Raw data were normalized by using the RMA algorithm and filtered. Genes differentially expressed were selected by analysis of variance (ANOVA) (p value threshold =0.05) using the Partek Genomics Suite software (Partek Incorporated Saint Louis, MO, USA; http://www.partek.com).
smiles,measurement,setting,value
Cn1cc(-c2[nH]c3cc(NC(=O)[C@H](N)C4CCCCC4)cc4c3c2C=NNC4=O)cn1 [PF-00477736],cell cycle profile,[1],progressive reduction of the number of cells in S and G2/M phase
same,cell cycle profile,NALM-6 cell line,progressively increased the percentage of cells in G2/M phase
same,"Fold-Change (PF-00477736 vs. DMSO), SESN2","[2]; transcript ID 7899436, 24 h, up-regulated",2.221
same,"Fold-Change (PF-00477736 vs. DMSO), RNU11","[2]; transcript ID 7899502, 24 h, up-regulated",2.283
same,"Fold-Change (PF-00477736 vs. DMSO), GADD45A","[2]; transcript ID 7902227, 24 h, up-regulated",2.163
same,"Fold-Change (PF-00477736 vs. DMSO), HIST2H4A","[2]; transcript ID 7905067, 24 h, up-regulated",3.531
same,"Fold-Change (PF-00477736 vs. DMSO), BTG2","[2]; transcript ID 7908917, 24 h, up-regulated",2.0536
same,"Fold-Change (PF-00477736 vs. DMSO), ATF3","[2]; transcript ID 7909610, 24 h, up-regulated",2.764
same,"Fold-Change (PF-00477736 vs. DMSO), JUN","[2]; transcript ID 7916609, 24 h, up-regulated",5.3469
same,"Fold-Change (PF-00477736 vs. DMSO), HIST2H2BF","[2]; transcript ID 7919584, 24 h, up-regulated",2.188
same,"Fold-Change (PF-00477736 vs. DMSO), HIST2H2BF","[2]; transcript ID 7919606, 24 h, up-regulated",2.022
same,"Fold-Change (PF-00477736 vs. DMSO), HIST2H4A","[2]; transcript ID 7919627, 24 h, up-regulated",3.531
same,"Fold-Change (PF-00477736 vs. DMSO), RGS16","[2]; transcript ID 7922717, 24 h, up-regulated",2.4
same,"Fold-Change (PF-00477736 vs. DMSO), NFKB2","[2]; transcript ID 7930074, 24 h, up-regulated",2.262
same,"Fold-Change (PF-00477736 vs. DMSO), KLF6","[2]; transcript ID 7931810, 24 h, up-regulated",2.17 and 2.174
same,"Fold-Change (PF-00477736 vs. DMSO), BNIP3","[2]; transcript ID 7937079, 24 h, down-regulated",-2.2734
same,"Fold-Change (PF-00477736 vs. DMSO), BEST1","[2]; transcript ID 7940582, 24 h, up-regulated",2.3629
same,"Fold-Change (PF-00477736 vs. DMSO), TCP11L2","[2]; transcript ID 7958262, 24 h, up-regulated",2.209
same,"Fold-Change (PF-00477736 vs. DMSO), CD69","[2]; transcript ID 7961075, 24 h, up-regulated",3.17
same,"Fold-Change (PF-00477736 vs. DMSO), RND1","[2]; transcript ID 7962884, 24 h, up-regulated",2.096
same,"Fold-Change (PF-00477736 vs. DMSO), DDIT3","[2]; transcript ID 7964460, 24 h, up-regulated",3.32 and 3.325
same,"Fold-Change (PF-00477736 vs. DMSO), FOS","[2]; transcript ID 7975779, 24 h, up-regulated",2.40 and 2.404
same,"Fold-Change (PF-00477736 vs. DMSO), CHAC1","[2]; transcript ID 7982868, 24 h, up-regulated",2.1
same,"Fold-Change (PF-00477736 vs. DMSO), MAP1LC3B","[2]; transcript ID 7997740, 24 h, up-regulated",2.05
same,"Fold-Change (PF-00477736 vs. DMSO), ALDOC","[2]; transcript ID 8013660, 24 h, down-regulated",-2.184
same,"Fold-Change (PF-00477736 vs. DMSO), ROCK1P1","[2]; transcript ID 8019804, 24 h, up-regulated",2.468
same,"Fold-Change (PF-00477736 vs. DMSO), PPP1R15A","[2]; transcript ID 8030128, 24 h, up-regulated",2.884
same,"Fold-Change (PF-00477736 vs. DMSO), TRIB3","[2]; transcript ID 8060344, 24 h, up-regulated",2.719
same,"Fold-Change (PF-00477736 vs. DMSO), CEBPB","[2]; transcript ID 8063386, 24 h, up-regulated",2.112
same,"Fold-Change (PF-00477736 vs. DMSO), NFKBIZ","[2]; transcript ID 8081386, 24 h, up-regulated",2.098
same,"Fold-Change (PF-00477736 vs. DMSO), IL8","[2]; transcript ID 8095680, 24 h, up-regulated",2.299
same,"Fold-Change (PF-00477736 vs. DMSO), EGR1","[2]; transcript ID 8108370, 24 h, up-regulated",2.571
same,"Fold-Change (PF-00477736 vs. DMSO), ARRDC3","[2]; transcript ID 8113073, 24 h, up-regulated",2.177
same,"Fold-Change (PF-00477736 vs. DMSO), HIST1H2BJ","[2]; transcript ID 8124484, 24 h, up-regulated",2.658
same,"Fold-Change (PF-00477736 vs. DMSO), HIST1H2AJ","[2]; transcript ID 8124518, 24 h, up-regulated",5.146
same,"Fold-Change (PF-00477736 vs. DMSO), HIST1H2AM","[2]; transcript ID 8124540, 24 h, up-regulated",2.131
same,"Fold-Change (PF-00477736 vs. DMSO), IER3","[2]; transcript ID 8124848, 24 h, up-regulated",2.508
same,"Fold-Change (PF-00477736 vs. DMSO), IER3","[2]; transcript ID 8178435, 24 h, up-regulated",2.417
same,"Fold-Change (PF-00477736 vs. DMSO), IER3","[2]; transcript ID 8179704, 24 h, up-regulated",2.508
same,upregulated genes,"[2]; treated vs DMSO 0.1 %, 24 h, 44 % of 941",413 genes
same,down-modulated genes,"[2]; treated vs DMSO 0.1 %, 24 h, 56 % of 941",528 genes
same,differentially expressed genes (p < 0.05),"[2]; treated vs DMSO 0.1 %, 24 h of drug exposure",941 genes

# — article PMC4635624, “In vitro and in vivo single-agent efficacy of checkpoint kinase inhibition in acute lymphoblastic leukemia” (Journal of Hematology & Oncology, 2015)
